# Experimental data taken from patent publication US20240247080A1, “GLP1/GIP/NPY2 RECEPTOR TRIPLE AGONISTS” (Boehringer Ingelheim International GmbH, priority 2022, published 2024).
# Like-named read-outs stand apart in the source and are kept apart here. Starred links: 1 amine or outer side, 2 acyl side, 3 side chain; linkers in the order of their positions; H or OH if unused. Non-standard residues stand in square brackets, D forms with d. Groups on a side chain read outwards from the residue. *: point of attachment. C20 diacid = O=C(O)CCCCCCCCCCCCCCCCCCC(=O)*; γGlu = O=C(O)[C@H](CCC(=O)[*:2])N[*:1]; εLys = N[C@@H](CCCCN[*:1])C(=O)[*:2]; NMeR = CN[C@@H](CCCNC(=N)N)C(=O)O; Tle = CC(C)(C)[C@H](N)C(=O)O; Aib = CC(C)(N)C(=O)O
# What was measured:
# hGLP1R = biological target: T1, hGLP1R (Homo sapiens, UniProt P43220); assay: hGLP1R CreLuc reporter gene assay in 0.5% and 100% plasma; type: cell-based; settings: CreLuc reporter gene assay
# T1 construct: expressed in transfected cells; host or cells: HEK-293 cells carrying a CRE-luciferase reporter gene
# T1 sequence (P43220 24-463): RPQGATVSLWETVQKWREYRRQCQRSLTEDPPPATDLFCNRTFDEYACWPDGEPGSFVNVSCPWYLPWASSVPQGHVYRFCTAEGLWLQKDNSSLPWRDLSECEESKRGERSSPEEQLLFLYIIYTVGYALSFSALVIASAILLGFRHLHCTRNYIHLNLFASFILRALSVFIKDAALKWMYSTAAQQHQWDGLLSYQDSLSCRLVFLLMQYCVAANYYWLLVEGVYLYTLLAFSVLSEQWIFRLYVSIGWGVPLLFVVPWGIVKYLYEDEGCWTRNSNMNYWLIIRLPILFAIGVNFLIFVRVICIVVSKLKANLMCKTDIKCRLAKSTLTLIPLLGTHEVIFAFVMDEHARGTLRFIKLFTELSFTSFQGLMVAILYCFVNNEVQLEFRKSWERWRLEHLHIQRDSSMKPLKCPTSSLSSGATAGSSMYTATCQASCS
# Excerpt: (§1) Example 1: hGLPR/hGIPR/hNPY2R CreLuc Assay in 0.5% and 100% Plasma
# (§2) CHO and HEK-293 recombinant cell lines express a luciferase reporter gene under control of the cAMP responsive element (CRE). As a second recombinant protein the GLP-1 and NPY2 receptors were expressed in the reporter gene HEK cells, and the GIP receptor was expressed in the reporter gene CHO cells, respectively. Stimulation of these recombinant cells with an agonist leads to an increase of intracellular cAMP levels. In the presence of cAMP, the transcription factor CRE binding protein (CREB) binds to the CRE and to the CREB binding protein (CBP), which leads to transcription of the luciferase reporter gene. Peptides upon serial-dilution in 100% DMSO were transferred into 384-well assay plates with 5 μl pre-dispensed assay buffer (1×HBSS, 20 mM HEPES, pH7.4 supplemented with 0.5% human plasma) using acoustic dispensing on a Labcyte ECHO. Cryo-preserved transgenic reporter gene cells were thawed in assay buffer. 20 μl (10.000 cells/well) were added to the plate with the peptides and incubated for 4 hours at 37° C. in a humidified incubator. Following incubation, assay plates are equilibrated to room temperature, followed by addition of 25 μl of Bright-GIo™ Luciferase reagent, incubation at room temperature for 10 minutes and analysis of luminescence (Envision Reader). Concentration response evaluation of compounds was performed with 8 concentrations of peptides (covering four decades). EC50 values were calculated by non-linear regression using sigmoid concentration-response with variable slope. The same assays were run in the presence of 100% plasma with no additional buffer constituents.
# hGIPR = biological target: T2, hGIPR (Homo sapiens, UniProt P48546); assay: hGIPR CreLuc reporter gene assay in 0.5% and 100% plasma; type: cell-based; settings: CreLuc reporter gene assay
# T2 construct: expressed in transfected cells; host or cells: CHO cells carrying a CRE-luciferase reporter gene
# T2 sequence (P48546 22-466): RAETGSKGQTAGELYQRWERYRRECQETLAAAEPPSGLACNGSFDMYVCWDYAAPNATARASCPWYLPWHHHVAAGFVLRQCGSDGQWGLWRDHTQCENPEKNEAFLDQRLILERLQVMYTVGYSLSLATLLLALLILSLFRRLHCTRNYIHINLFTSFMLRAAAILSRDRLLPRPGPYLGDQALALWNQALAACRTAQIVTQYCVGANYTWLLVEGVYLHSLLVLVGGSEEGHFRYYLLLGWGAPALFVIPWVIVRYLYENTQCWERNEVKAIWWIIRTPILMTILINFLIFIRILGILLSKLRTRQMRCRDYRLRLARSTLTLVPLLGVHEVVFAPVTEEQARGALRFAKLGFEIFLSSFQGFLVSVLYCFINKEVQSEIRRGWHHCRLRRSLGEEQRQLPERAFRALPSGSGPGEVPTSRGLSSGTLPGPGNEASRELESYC
# Excerpt: as §1, §2
# [1] = 0.5% human plasma, read-out: hGLP1R 0.5% hP
# [2] = 100% human plasma, read-out: hGLP1R 100% hP
# [3] = 0.5% human plasma, read-out: hGIPR 0.5% hP
# [4] = 100% human plasma, read-out: hGIPR 100% hP
Substance,EC50 (hGLP1R; [1]) [nM],EC50 (hGLP1R; [2]) [nM],EC50 (hGIPR; [3]) [nM],EC50 (hGIPR; [4]) [nM]
"H-Y[Aib]EGTFTSDYSI[Aib]LEKQAQ[Aib]AFVEWLIK([εLys-γGlu-γGlu-γGlu-γGlu-γGlu-γGlu-C20 diacid])GGPSSGADLRHYLNWLTRQRY-NH2 [Compound 72, Y-Aib-E-G-T-F-T-S-D-Y-S-I-Aib-L-E-K-Q-A-Q-Aib-A-F-V-E-W-L-I-K(1,3)-GGPSSGADLRHYLNWLTRQRY-NH2.C20DA-gGlu-gGlu-gGlu-gGlu-gGlu-gGlu-eLys(1,2)]",0.15,2.87,0.29,–
"H-Y[Aib]EGTFTSDYSI[Aib]LEKQAQ[Aib]AFVEWLIK([εLys-γGlu-γGlu-γGlu-γGlu-γGlu-γGlu-C20 diacid])GGPSSGASLRHYYNLLTRQRY-NH2 [Compound 195, Y-Aib-E-G-T-F-T-S-D-Y-S-I-Aib-L-E-K-Q-A-Q-Aib-A-F-V-E-W-L-I-K(1,3)-GGPSSGASLRHYYNLLTRQRY-NH2.C20DA-gGlu-gGlu-gGlu-gGlu-gGlu-gGlu-eLys(1,2)]",0.13,–,0.25,1.42
"H-Y[Aib]EGTFTSDYSI[Aib]LEKQAQ[Aib]AFVEWLIK([εLys-γGlu-γGlu-γGlu-γGlu-γGlu-γGlu-C20 diacid])GGPSSGASLRHYYNW[Tle]TRQRY-NH2 [Compound 137, Y-Aib-E-G-T-F-T-S-D-Y-S-I-Aib-L-E-K-Q-A-Q-Aib-A-F-V-E-W-L-I-K(1,3)-G-G-P-S-S-G-A-S-L-R-H-Y-Y-N-W-Tle-T-R-Q-R-Y-NH2.C20DA-gGlu-gGlu-gGlu-gGlu-gGlu-gGlu-eLys(1,2)]",0.12,–,0.28,1.5
"H-Y[Aib]EGTFTSDYSI[Aib]LEKQAQ[Aib]AFVEWLIK([εLys-γGlu-γGlu-γGlu-γGlu-γGlu-γGlu-C20 diacid])GGPSSGASLRHYYN[Aib]LTRQRY-NH2 [Compound 218, Y-Aib-E-G-T-F-T-S-D-Y-S-I-Aib-L-E-K-Q-A-Q-Aib-A-F-V-E-W-L-I-K(1,3)-G-G-P-S-S-G-A-S-L-R-H-Y-Y-N-Aib-L-T-R-Q-R-Y-NH2.C20DA-gGlu-gGlu-gGlu-gGlu-gGlu-gGlu-eLys(1,2)]",0.16,–,0.36,2.35
"H-Y[Aib]EGTFTSDYSI[Aib]LEKQAQ[Aib]AFVEWLIK([εLys-γGlu-γGlu-γGlu-γGlu-γGlu-γGlu-C20 diacid])GGPSSGAS[Aib]RHYYNWLTRQRY-NH2 [Compound 118, Y-Aib-E-G-T-F-T-S-D-Y-S-I-Aib-L-E-K-Q-A-Q-Aib-A-F-V-E-W-L-I-K(1,3)-G-G-P-S-S-G-A-S-Aib-R-H-Y-Y-N-W-L-T-R-Q-R-Y-NH2.C20DA-gGlu-gGlu-gGlu-gGlu-gGlu-gGlu-eLys(1,2)]",0.05,–,0.06,0.55
"H-Y[Aib]EGTFTSDYSI[Aib]LEKQAQ[Aib]AFVEWLIK([εLys-γGlu-γGlu-γGlu-γGlu-γGlu-γGlu-C20 diacid])GGPSSGAS[Aib]RHYYNWLTRQ[NMeR]Y-NH2 [Compound 39, Y-Aib-E-G-T-F-T-S-D-Y-S-I-Aib-L-E-K-Q-A-Q-Aib-A-F-V-E-W-L-I-K(1,3)-G-G-P-S-S-G-A-S-Aib-R-H-Y-Y-N-W-L-T-R-Q-NMeR-Y-NH2.C20DA-gGlu-gGlu-gGlu-gGlu-gGlu-gGlu-eLys(1,2)]",0.09,0.82,0.06,0.4
"H-Y[Aib]EGTFTSDYSI[Aib]LEKQAQ[Aib]AFVEWLIK([εLys-γGlu-γGlu-γGlu-γGlu-γGlu-γGlu-C20 diacid])GGPSSGAS[Aib]RHY[Aib]NR[Aib]TRQRY-NH2 [Compound 4, Y-Aib-E-G-T-F-T-S-D-Y-S-I-Aib-L-E-K-Q-A-Q-Aib-A-F-V-E-W-L-I-K(1,3)-G-G-P-S-S-G-A-S-Aib-R-H-Y-Aib-N-R-Aib-T-R-Q-R-Y-NH2.C20DA-gGlu-gGlu-gGlu-gGlu-gGlu-gGlu-eLys(1,2)]",0.09,–,0.25,1.66
"H-Y[Aib]EGTFTSDYSI[Aib]LEKQAQ[Aib]AFVEWLIK([εLys-γGlu-γGlu-γGlu-γGlu-γGlu-γGlu-C20 diacid])GGPSSGISLRHYYNWLTRQRY-NH2 [Compound 94, Y-Aib-E-G-T-F-T-S-D-Y-S-I-Aib-L-E-K-Q-A-Q-Aib-A-F-V-E-W-L-I-K(1,3)-GGPSSGISLRHYYNWLTRQRY-NH2.C20DA-gGlu-gGlu-gGlu-gGlu-gGlu-gGlu-eLys(1,2)]",0.09,–,0.22,1.04
